Values after ≈ are worked out from the molar mass of the structure shown. Active and inactive are the calls of the source. No cut-off for these calls is given here.
What was measured:
Enterococcus faecalis [1] = test: Antibacterial activity against Enterococcus faecalis MTCC 439 assessed as inhibition of bacterial growth at 200 ug/ml incubated overnight by spectrophotometry relative to control; assay type: functional
Bacillus subtilis [2] = test: Antibacterial activity against Bacillus subtilis MTCC 736 assessed as diameter of zone of inhibition at 500 ug/ml by agar disk diffusion method; assay type: functional; conditions: read-out: DIZ
Pseudomonas aeruginosa [3] = test: Bactericidal activity against Pseudomonas aeruginosa MTCC 2453 assessed as inhibition of bacterial growth incubated overnight; assay type: functional
Bacillus subtilis [4] = test: Antibacterial activity against Bacillus subtilis MTCC 736 assessed as inhibition of bacterial growth at 200 ug/ml incubated overnight by spectrophotometry relative to control; assay type: functional
Salmonella typhi [5] = test: Synergistic antibacterial activity against Salmonella typhi assessed as inhibition of bacterial growth incubated overnight in presence of ciprofloxacin by serial dilution based spectrophotometer; assay type: functional, Salmonella enterica subsp. enterica serovar Typhi; conditions: Salmonella enterica
Salmonella typhi [6] = test: Antibacterial activity against Salmonella typhi assessed as diameter of zone of inhibition at MIC incubated overnight by disk diffusion method; assay type: functional, Salmonella enterica subsp. enterica serovar Typhi
Staphylococcus aureus [7] = test: Ratio of MBC for antibacterial activity against Staphylococcus aureus MTCC 902 to MIC for bactericidal activity against Staphylococcus aureus MTCC 902; assay type: functional
Bacillus subtilis [8] = test: Antibacterial activity against Bacillus subtilis MTCC 736 assessed as diameter of zone of inhibition at 2 times MIC incubated overnight by disk diffusion method; assay type: functional
Escherichia coli [9] = test: Ratio of MBC for antibacterial activity against Escherichia coli MTCC 443 to MIC for bactericidal activity against Escherichia coli MTCC 443; assay type: functional
Pseudomonas aeruginosa [10] = test: Synergistic antibacterial activity against Pseudomonas aeruginosa MTCC 2453 assessed as fractional inhibitory concentration index incubated overnight in presence of ciprofloxacin by microdilution checkerboard assay; assay type: functional
Staphylococcus aureus [11] = test: Antibacterial activity against Staphylococcus aureus MTCC 902 assessed as inhibition of bacterial growth at 200 ug/ml incubated overnight by spectrophotometry relative to control; assay type: functional
Pseudomonas aeruginosa [12] = test: Antibacterial activity against Pseudomonas aeruginosa MTCC 2453 assessed as inhibition of bacterial growth at 200 ug/ml incubated overnight by spectrophotometry relative to control; assay type: functional
Enterococcus faecalis [13] = test: Antibacterial activity against Enterococcus faecalis MTCC 439 assessed as diameter of zone of inhibition at 2 times MIC incubated overnight by disk diffusion method; assay type: functional
Salmonella typhi [14] = test: Bactericidal activity against Salmonella typhi assessed as inhibition of bacterial growth incubated overnight; assay type: functional, Salmonella enterica subsp. enterica serovar Typhi; conditions: Salmonella enterica
Escherichia coli [15] = test: Antibacterial activity against Escherichia coli clinical isolate ECJH19 assessed as diameter of zone of inhibition by disk diffusion assay; assay type: functional
Escherichia coli [16] = test: Antibacterial activity against Escherichia coli clinical isolate ECJH13 assessed as diameter of zone of inhibition by disk diffusion assay; assay type: functional
Escherichia coli [17] = test: Antibacterial activity against Escherichia coli clinical isolate ECJH21 assessed as diameter of zone of inhibition by disk diffusion assay; assay type: functional
Bacillus subtilis [18] = test: Antibacterial activity against Bacillus subtilis MTCC 736 assessed as diameter of zone of inhibition at 0.5 times MIC incubated overnight by disk diffusion method; assay type: functional
Escherichia coli [19] = test: Antibacterial activity against Escherichia coli clinical isolate ECJH15 assessed as diameter of zone of inhibition by disk diffusion assay; assay type: functional
Escherichia coli [20] = test: Antibacterial activity against Escherichia coli clinical isolate ECJH3 assessed as diameter of zone of inhibition by disk diffusion assay; assay type: functional
Escherichia coli [21] = test: Antibacterial activity against Escherichia coli clinical isolate ECJH18 assessed as diameter of zone of inhibition by disk diffusion assay; assay type: functional
Escherichia coli [22] = test: Antibacterial activity against Escherichia coli clinical isolate ECJH17 assessed as diameter of zone of inhibition by disk diffusion assay; assay type: functional
Escherichia coli [23] = test: Antibacterial activity against Escherichia coli clinical isolate ECJH7 assessed as diameter of zone of inhibition by disk diffusion assay; assay type: functional
Pseudomonas aeruginosa [24] = test: Antibacterial activity against Pseudomonas aeruginosa MTCC 2453 assessed as diameter of zone of inhibition at 0.5 times MIC incubated overnight by disk diffusion method; assay type: functional
Escherichia coli [25] = test: Antibacterial activity against Escherichia coli clinical isolate ECJH23 assessed as diameter of zone of inhibition by disk diffusion assay; assay type: functional
Escherichia coli [26] = test: Antibacterial activity against Escherichia coli clinical isolate ECJH16 assessed as diameter of zone of inhibition by disk diffusion assay; assay type: functional
Escherichia coli [27] = test: Antibacterial activity against Escherichia coli clinical isolate ECJH22 assessed as diameter of zone of inhibition by disk diffusion assay; assay type: functional
Escherichia coli [28] = test: Antibacterial activity against Escherichia coli clinical isolate ECJH6 assessed as diameter of zone of inhibition by disk diffusion assay; assay type: functional
Escherichia coli [29] = test: Antibacterial activity against Escherichia coli clinical isolate ECJH5 assessed as diameter of zone of inhibition by disk diffusion assay; assay type: functional
Escherichia coli [30] = test: Antibacterial activity against Escherichia coli clinical isolate ECJH12 assessed as diameter of zone of inhibition by disk diffusion assay; assay type: functional
Escherichia coli [31] = test: Antibacterial activity against Escherichia coli clinical isolate ECJH11 assessed as diameter of zone of inhibition by disk diffusion assay; assay type: functional
Escherichia coli [32] = test: Antibacterial activity against Escherichia coli clinical isolate ECJH25 assessed as diameter of zone of inhibition by disk diffusion assay; assay type: functional
[33] = Hemolytic activity in human RBC assessed as hemolysis upto 500 ug/ml incubated for 1 hr by absorbance based analysis; assay type: toxicity, cell-based, Erythrocyte; conditions: red blood cells (RBC), up to 500 µg/mL, read-out: Activity
Escherichia coli [34] = test: Antibacterial activity against Escherichia coli clinical isolate ECJH4 assessed as diameter of zone of inhibition by disk diffusion assay; assay type: functional
Escherichia coli [35] = test: Antibacterial activity against Escherichia coli clinical isolate ECJH24 assessed as diameter of zone of inhibition by disk diffusion assay; assay type: functional
Escherichia coli [36] = test: Antibacterial activity against Escherichia coli clinical isolate ECJH1 assessed as diameter of zone of inhibition by disk diffusion assay; assay type: functional
Escherichia coli [37] = test: Antibacterial activity against Escherichia coli clinical isolate ECJH14 assessed as diameter of zone of inhibition by disk diffusion assay; assay type: functional
Escherichia coli [38] = test: Bacteriostatic activity against Escherichia coli MTCC 443 assessed as reduction in bacterial growth at 0.5 to 2 times MIC measured upto 24 hrs by absorbance based assay; assay type: functional, organism-based
[39] = Hemolytic activity in human RBC assessed as hemolysis at 1000 ug/ml incubated for 1 hr by absorbance based analysis; assay type: toxicity, cell-based, Erythrocyte; conditions: red blood cells (RBC), at 1000 µg/mL, read-out: Activity
Escherichia coli [40] = test: Antibacterial activity against Escherichia coli clinical isolate ECJH20 assessed as diameter of zone of inhibition by disk diffusion assay; assay type: functional
Staphylococcus aureus [41] = test: Bacteriostatic activity against Staphylococcus aureus MTCC 902 assessed as reduction in bacterial growth at 0.5 to 2 times MIC measured upto 24 hrs by absorbance based assay; assay type: functional, organism-based
Escherichia coli [42] = test: Antibacterial activity against Escherichia coli clinical isolate ECJH2 assessed as diameter of zone of inhibition by disk diffusion assay; assay type: functional
Escherichia coli [43] = test: Antibacterial activity against Escherichia coli clinical isolate ECJH10 assessed as diameter of zone of inhibition by disk diffusion assay; assay type: functional
Staphylococcus aureus [44] = test: Antibacterial activity against Staphylococcus aureus MTCC 902 assessed as diameter of zone of inhibition at 0.5 times MIC incubated overnight by disk diffusion method; assay type: functional
Escherichia coli [45] = test: Antibacterial activity against Escherichia coli clinical isolate ECJH9 assessed as diameter of zone of inhibition by disk diffusion assay; assay type: functional

## Clc1ccc2c(NCC/N=C/c3ccc4ccccc4n3)ccnc2c1
Enterococcus faecalis [1]
  inhibition at 200 µg/mL: 100%
Bacillus subtilis [2]
  zone of inhibition at 500 µg/mL: 10 mm
Pseudomonas aeruginosa [3]
  MBC: 512 µg/mL (≈ 1420 µM)
Bacillus subtilis [4]
  inhibition at 200 µg/mL: 100%
Salmonella typhi [5]
  MIC: 4 µg/mL
Salmonella typhi [6]
  diameter of the inhibition zone (DIZ): 10 mm
Staphylococcus aureus [7]
  Ratio: 1
Bacillus subtilis [8]
  diameter of the inhibition zone (DIZ): 10 mm
Escherichia coli [9]
  Ratio: 1
Pseudomonas aeruginosa [10]
  fractional inhibitory concentration index (FICI): 1.25
Staphylococcus aureus [11]
  inhibition at 200 µg/mL: 100%
Pseudomonas aeruginosa [12]
  inhibition at 200 µg/mL: 100%
Enterococcus faecalis [13]
  diameter of the inhibition zone (DIZ): 7 mm
Salmonella typhi [14]
  MBC: 128 µg/mL (≈ 355 µM)

## O=[N+]([O-])c1ccccc1/C=N/CCNc1ccnc2cc(Cl)ccc12
Escherichia coli [15]
  diameter of the inhibition zone (DIZ): 10 mm
Escherichia coli [16]
  diameter of the inhibition zone (DIZ): 11 mm
Bacillus subtilis [2]
  zone of inhibition at 500 µg/mL: 12 mm
Escherichia coli [17]
  diameter of the inhibition zone (DIZ): 8 mm
Pseudomonas aeruginosa [3]
  MBC: 128 µg/mL (≈ 361 µM)
Bacillus subtilis [18]
  diameter of the inhibition zone (DIZ): 8 mm
Escherichia coli [19]
  diameter of the inhibition zone (DIZ): 11 mm
Escherichia coli [20]
  diameter of the inhibition zone (DIZ): 10 mm
Salmonella typhi [5]
  MIC: 1 µg/mL
Escherichia coli [21]
  diameter of the inhibition zone (DIZ): 11 mm
Salmonella typhi [6]
  diameter of the inhibition zone (DIZ): 11 mm
Escherichia coli [22]
  diameter of the inhibition zone (DIZ): 8 mm
Staphylococcus aureus [7]
  Ratio: 1
Escherichia coli [23]
  diameter of the inhibition zone (DIZ): 10 mm
Pseudomonas aeruginosa [24]
  diameter of the inhibition zone (DIZ): 7 mm
Escherichia coli [25]
  diameter of the inhibition zone (DIZ): 11 mm
Escherichia coli [26]
  diameter of the inhibition zone (DIZ): 10 mm
Escherichia coli [27]
  diameter of the inhibition zone (DIZ): 9 mm
Bacillus subtilis [8]
  diameter of the inhibition zone (DIZ): 11 mm
Escherichia coli [28]
  diameter of the inhibition zone (DIZ): 10 mm
Escherichia coli [9]
  Ratio: 1
Escherichia coli [29]
  diameter of the inhibition zone (DIZ): 12 mm
Escherichia coli [30]
  diameter of the inhibition zone (DIZ): 12 mm
Escherichia coli [31]
  diameter of the inhibition zone (DIZ): 11 mm
Escherichia coli [32]
  diameter of the inhibition zone (DIZ): 11 mm
[33]
  hemolysis at 1 h: < 10%
Escherichia coli [34]
  diameter of the inhibition zone (DIZ): 13 mm
Escherichia coli [35]
  diameter of the inhibition zone (DIZ): 13 mm
Escherichia coli [36]
  diameter of the inhibition zone (DIZ): 11 mm
Escherichia coli [37]
  diameter of the inhibition zone (DIZ): 12 mm
Pseudomonas aeruginosa [10]
  fractional inhibitory concentration index (FICI): 1.5
Escherichia coli [38]
  Activity: Active
[39]
  hemolysis at 1 h, 1000 ug/ml: < 20%
Escherichia coli [40]
  diameter of the inhibition zone (DIZ): 10 mm
Staphylococcus aureus [41]
  Activity: Active
Escherichia coli [42]
  diameter of the inhibition zone (DIZ): 11 mm
Escherichia coli [43]
  diameter of the inhibition zone (DIZ): 11 mm
Enterococcus faecalis [13]
  diameter of the inhibition zone (DIZ): 12 mm
Salmonella typhi [14]
  MBC: 64 µg/mL (≈ 180 µM)
Staphylococcus aureus [44]
  diameter of the inhibition zone (DIZ): 8 mm
Escherichia coli [45]
  diameter of the inhibition zone (DIZ): 10 mm

Source: ChEMBL document CHEMBL6078713, “Synthesis and mechanistic studies of 4-aminoquinoline-Isatin molecular hybrids and Schiff's bases as promising antimicrobial agents” (Eur J Med Chem, 2025)
